{"source": "ChEMBL document CHEMBL2040829", "about": "“Highly regioselective synthesis of N-3 organophosphorous derivatives of 3,4-dihydropyrimidin-2(1H)-ones and their calcium channel binding studies” (Eur J Med Chem, 2012)", "experiment": "Inhibition of calcium channel in pig carotid artery assessed as relaxation of KCl-induced vascular smooth muscle contraction", "data": [{"molecule": "COC(=O)C1=C(C)NC(C)=C(C(=O)OC)C1c1ccccc1[N+](=O)[O-]", "note": "[NIFEDIPINE]", "values": [{"measurement": "IC50", "result": 10, "unit": "nM"}]}]}
